Results: PubChem BioAssay AID2060618 (Molecular Pharmacology Branch, DTP, NCI, 2025)

System: 454973-116-R2-J3-PDC spheroids, percent test/control viability
Test: Anticancer human tumor 454973-116-R2-J3-PDC patient-derived pancreatic carcinoma cell line growth inhibition [CLK]
Conditions: spheroids with HUVEC and MSC; for IC50: curve of first compound; for viability, T/C: stronger effect = lower value
Text: A high-throughput screen of multi-cell type tumor spheroids was designed to identify active combinations of […] and targeted small molecules. Complex spheroids include a stromal component modeled by human endothelial cells (HUVEC) and fibroblasts modeled by human mesenchymal stem cells (MSCs). The concentration ranges selected for each drug and investigational agent were based upon clinically achievable concentrations if the clinical Cmax of the agent was known.
Compounds. The drugs and investigational agents: cirtuvivint (SM08502; NSC835563), CC-671 (NSC850746), vemurafenib (NSC761431), tapotoclax (NSC804041), sotorasib (NSC818433), adagrasib (NSC831453), MRTX-1133 (NSC836407), BAY2416964 (NSC825713), copanlisib (NSC816437), inavolisib (NSC800729), abemaciclib (NSC768073), osimertinib (NSC779217), entinostat (NSC756642), eltanexor (KPT-8602, NSC794443), venetoclax (NSC766270), ceralasertib (NSC777638), bortezomib (NSC756655), olaparib (NSC753686), talazoparib (NSC767125), alisertib (NSC759677), peposertib (NSC802822), gemcitabine (NSC613327), 5-fluorouracil (NSC19893), SN-38 (NSC673596), oxaliplatin (NSC266046), paclitaxel (NSC125973), and doxorubicin (NSC123127), were obtained from the National Cancer Institute (NCI) Developmental Therapeutics Program Chemical Repository. The FDA-approved anticancer drug set is available from the Developmental Therapeutics Program at https://dtp.cancer.gov/organization/dscb/obtaining/available plates.htm. […] The stock solutions were prepared in dimethyl sulfoxide (DMSO, Sigma-Aldrich, St. Louis, MO, cat. D2650), except for the platinum complexes which were prepared in saline (Quality Biological, Gaithersburg, MD, cat. 114-055-101), at 800-fold the tested concentration and stored at -70 degrees C prior to their use. All drugs and investigational agents were tested over a range starting from a high concentration at or near the clinical Cmax and decreasing in half-log increments. If the clinical Cmax for an agent had not been determined, the highest concentration tested was 10 microM.
Cell Culture. All cells were maintained in an incubator at 37 degrees C and 5% CO2 with 95% humidity. The PDC lines were cultured according to standard operating procedures established by the NCI PDMR. Briefly, all PDCs were thawed and cultured in Matrigel-coated flasks prepared with a working solution of 1X Ham's F-12 nutrient mix, without supplementation (Invitrogen, Waltham, MA, cat. 11765054), 100 U/mL penicillin-streptomycin (Invitrogen, cat. 15140122), and 2.5% Matrigel (Corning Inc., Corning, NY, cat. 354248) for the first three passages. The 947758-054-R-J2-PDC line was cultured in 6B/Colon 1A media, which includes advanced DMEM/F-12 (Thermo Fisher Scientific, cat. 12634028), 10 mM HEPES (Thermo Fisher Scientific, cat. 15630080), 1X GlutaMAX supplement (Thermo Fisher Scientific, cat. 35050061), 0.1 mg/mL primocin (InvivoGen, cat. ant-pm-2), 10% defined fetal bovine serum, heat inactivated (HyClone Laboratories Inc., cat. SH30070.03HI), 1.25 mM N-Acetyl-L-cysteine (Sigma-Aldrich, cat. A9165), 10 mM nicotinamide (Sigma-Aldrich, cat. N0636), 1X B-27 supplement (Thermo Fisher Scientific, cat. 17504044), 1X N-2 supplement (Thermo Fisher Scientific, cat. 17502048), and 10 microM Y-27632 dihydrochloride (Tocris Bioscience, cat. 1254). The 876862-298-R-J1-PDC was cultured in 6E media, which includes all 6B/Colon 1A media components plus 50% L-WRN conditioned media (ATCC, cat. CRL-3276), 50 ng/mL recombinant human EGF recombinant protein (hEGF; Thermo Fisher Scientific, cat. PHG0311), 10 ng/mL recombinant human fibroblast growth factor 10 (hGFG-10; PeproTech, cat. 100-26), 1 ng/mL recombinant human fibroblast growth factor 2 (hFGF-2; PeproTech, cat. 100-18B), and 1 µM prostaglandin E2 (PGE2; Tocris, cat. 2296). The 227483-062-R1-J1-PDC line was cultured in Panc media, containing all 6E components except hFGF-2, with the addition of 500 nM SB-431542 (Selleckchem, cat. S1067) and 10 nM gastrin (Tocris, cat. 3006). […]
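Further: spheroids exposed to compounds for 7 days before readout.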

IC50 (second compound 0.0316 µM): 2.55 nM | IC50 (second compound 0.1 µM): 2.9 nM | IC50 (second compound 0.316 µM): 1.08 nM | IC50 (second compound 1 µM): < 0.949 nM | IC50 (second compound 3.16 µM): < 0.949 nM | IC50 (second compound 10 µM): < 0.949 nM
Compound: CC(C)CC(NC(=O)C(Cc1ccccc1)NC(=O)c1cnccn1)B(O)O (configuration not stated) + CNC(=O)c1ccc(Nc2nc(OC3CCCC3)c3c(-c4ccc5nc(C)oc5c4)c[nH]c3n2)c(OC)c1
viability, T/C (second compound 0.0316 µM, first compound 0.000949 µM): 104% | viability, T/C (second compound 0.0316 µM, first compound 0.003 µM): 41% | viability, T/C (second compound 0.0316 µM, first compound 0.00949 µM): 3.37% | viability, T/C (second compound 0.0316 µM, first compound 0.03 µM): 3.93% | viability, T/C (second compound 0.0316 µM, first compound 0.0949 µM): 1% | viability, T/C (second compound 0.0316 µM, first compound 0.3 µM): 1.85% | viability, T/C (second compound 0.1 µM, first compound 0.000949 µM): 108% | viability, T/C (second compound 0.1 µM, first compound 0.003 µM): 48.3% | viability, T/C (second compound 0.1 µM, first compound 0.00949 µM): 0.31% | viability, T/C (second compound 0.1 µM, first compound 0.03 µM): 2.58% | viability, T/C (second compound 0.1 µM, first compound 0.0949 µM): 2.61% | viability, T/C (second compound 0.1 µM, first compound 0.3 µM): 0.65% | viability, T/C (second compound 0.316 µM, first compound 0.000949 µM): 54.1% | viability, T/C (second compound 0.316 µM, first compound 0.003 µM): 18.6% | viability, T/C (second compound 0.316 µM, first compound 0.00949 µM): 1.42% | viability, T/C (second compound 0.316 µM, first compound 0.03 µM): 3.86% | viability, T/C (second compound 0.316 µM, first compound 0.0949 µM): 1.32% | viability, T/C (second compound 0.316 µM, first compound 0.3 µM): 0.81% | viability, T/C (second compound 1 µM, first compound 0.000949 µM): 41.6% | viability, T/C (second compound 1 µM, first compound 0.003 µM): 7.07% | viability, T/C (second compound 1 µM, first compound 0.00949 µM): 2.43% | viability, T/C (second compound 1 µM, first compound 0.03 µM): 2.96% | viability, T/C (second compound 1 µM, first compound 0.0949 µM): 3.35% | viability, T/C (second compound 1 µM, first compound 0.3 µM): 1.14% | viability, T/C (second compound 3.16 µM, first compound 0.000949 µM): 30.4% | viability, T/C (second compound 3.16 µM, first compound 0.003 µM): 3.95% | viability, T/C (second compound 3.16 µM, first compound 0.00949 µM): 1.54% | viability, T/C (second compound 3.16 µM, first compound 0.03 µM): 1.66% | viability, T/C (second compound 3.16 µM, first compound 0.0949 µM): 2.98% | viability, T/C (second compound 3.16 µM, first compound 0.3 µM): 0.23% | viability, T/C (second compound 10 µM, first compound 0.000949 µM): 28.3% | viability, T/C (second compound 10 µM, first compound 0.003 µM): 2.63% | viability, T/C (second compound 10 µM, first compound 0.00949 µM): 1.46% | viability, T/C (second compound 10 µM, first compound 0.03 µM): 3.63% | viability, T/C (second compound 10 µM, first compound 0.0949 µM): 1.96% | viability, T/C (second compound 10 µM, first compound 0.3 µM): 0.7%
